We go through 16 substances from US20230293630A1, “Coronavirus T Cell Epitopes and Uses Thereof” (priority 2020, published 2023).

Values joined by “and” are separate entries in the source; they are usually repeats but may differ in a detail not shown here. Equal values may be shown once.

In the first experiment the test system is SARS-CoV-2-specific CD8+ T cells (CD69+CD137+) in PBMC. As to Magnitude of response: unit not given here. As to Sum of response: unit not given here.
Test: not given
In kind it is cell-based, human.
Details: not given
Regarding VTYVPAQEK, the “Frequency of positive response” value is 33 and 25; the Magnitude of response is 435 and 235; the Sum of response was 435 and 235.
Take AISDYDYYR: the “Frequency of positive response” value came out at 100, the Magnitude of response stood at 173 and the Sum of response amounted to 173.
Consider EPVLKGVKL, for which the “Frequency of positive response” value came out at 20, the Magnitude of response is given as 313 and the Sum of response turned out to be 313.
With EILPVSMTK, the “Frequency of positive response” value was 25 and 50.
Regarding SEPVLKGVKL, the “Frequency of positive response” value is 40, the Magnitude of response was determined as 251 and the Sum of response amounted to 501.
The corresponding values for RLQSLQTY are 33, 142 and 142.
Take KAYNVTQAF: the “Frequency of positive response” value was 50 and 33.
For the substance YKTFPPTEPK, the “Frequency of positive response” value amounted to 50, the Magnitude of response is 139 and the Sum of response is 139.
In the case of KTFPPTEPKKDKKK, the “Frequency of positive response” value is reported as 50, the Magnitude of response was found to be 122 and the Sum of response is given as 122.
Consider YQDVNCTEV, for which the “Frequency of positive response” value was 50, the Magnitude of response was found to be 243 and the Sum of response is 243.
Regarding HTTDPSFLGR, the “Frequency of positive response” value was found to be 50, the Magnitude of response came out at 312 and the Sum of response was 312.
Regarding AAISDYDYYR, the “Frequency of positive response” value is recorded as 100, the Magnitude of response is 290 and the Sum of response came to 290.

In the next experiment the test system is human T cells. In words: T cell cytokine SFC response to cross-reactive CD4 epitopes (Tables 6-8). The class given is cell-based. The conditions noted are these: cross-reactive CD4 non-spike SARS-CoV-2 epitopes; all cytokines.
Take 846 (YIINLIIKNLSKSLT) [compound 846]: the “Total SFC” value is on record as 1393 SFC.
As for 806 (SEETGTLIVNSVLLF) [compound 806], the “Total SFC” value is 267 SFC.
Still for that read-out and setting: in the case of 849 (LYSPIFLIVAAIVFI) [compound 849] it was 520 SFC; in that of 248 (PSGTWLTYTGAIKLD) [compound 248], 1227 SFC.

The same experiment, now with this note: cross-reactive CD4 non-spike epitopes; IFNg spot forming cells.
846 (YIINLIIKNLSKSLT) [compound 846] gave an IFNg of 1283.
For 806 (SEETGTLIVNSVLLF) [compound 806], the IFNg was found to be 267.
The substance 849 (LYSPIFLIVAAIVFI) [compound 849] came in with an IFNg of 400.
The same measure, in the same setting: in the case of 248 (PSGTWLTYTGAIKLD) [compound 248] it was 947.

Still in this experiment, the particulars now being: cross-reactive CD4 non-spike epitopes; IL5 spot forming cells.
Substance 846 (YIINLIIKNLSKSLT) [compound 846] gave an IL5 of 0.
The same measure, in the same setting: in the case of 806 (SEETGTLIVNSVLLF) [compound 806] it was 0; in that of 849 (LYSPIFLIVAAIVFI) [compound 849], 0.
Substance 248 (PSGTWLTYTGAIKLD) [compound 248] gave an IL5 of 0.

The experiment is the same for the next values; noted with them: cross-reactive CD4 non-spike epitopes; IL13 spot forming cells.
The substance 846 (YIINLIIKNLSKSLT) [compound 846] came in with an IL13 of 0.
Still for that read-out and setting: in the case of 806 (SEETGTLIVNSVLLF) [compound 806] it was 0; in that of 849 (LYSPIFLIVAAIVFI) [compound 849], 0.
With 248 (PSGTWLTYTGAIKLD) [compound 248], the IL13 was determined as 0.
